# From patent US9815796B2 (Merck Sharp & Dohme Corp., priority 2013, dated 2017)
# Biological target: human PDE2A1 (Homo sapiens (Human), UniProt O00408)
# Assay: IMAP FP PDE selectivity panel, human PDE2A1
# Type: biochemical
# Conditions: Human PDE2, Lab B; read-out: Human PDE2 Ki (nM) - Lab B
# Procedure: Selectivity for PDE2, as compared to other PDE families, was assessed using the IMAP® technology. Human PDE 10A2 enzyme was prepared from cytosolic fractions of transiently transfected HEK cells. All other PDE's were GST Tag human enzyme expressed in insect cells and were obtained from BPS Bioscience (San Diego, Calif.): PDE1A (Cat#60010), human PDE2A1 (Cat#60020), PDE3A (Cat#60030), PDE4A1A (Cat#60040), PDE5A1 (Cat#60050), PDE6C (Cat#60060), PDE7A (Cat#60070), PDE8A1 (Cat#60080), PDE9A2 (Cat#60090), PDE11A4 (Cat#60110).
# Assays for PDE 1 through 11 were performed in parallel at room temperature in 384-well microtiter plates with an incubation volume of 20.2 μL. Solutions of test compounds were prepared in DMSO and serially diluted with DMSO to yield 30 μL of each of ten solutions differing by 3-fold in concentration, at 32 serial dilutions per plate. […] A Labcyte POD 810 (Labcyte, Sunnyvale, Calif.) was used to dispense 200 nL from each well of the titration plate to make eleven copies of the assay plate for each titration, one copy for each PDE enzyme. A solution of each enzyme (dilution from aliquots, sufficient to produce 20% substrate conversion) and a separate solution of FAM-labeled cAMP or FAM-labeled cGMP from Molecular Devices (Sunnyvale, Calif., product # R7506 or cGMP#R7508), at a final concentration of 50 nM were made in the assay buffer (10 mM Tris HCl, pH 7.2, 10 mM MgCl2, 0.05% NaN3 0.01% Tween-20, and 1 mM DTT). Note that the substrate for PDE2 is 50 nM FAM cAMP containing 1000 nM of cGMP. The enzyme and the substrate were then added to the assay plates in two consecutive additions of 10 μL and then shaken to mix. The reaction was allowed to proceed at room temperature for 60 minutes. A binding solution was then made from the kit components, comprised of 80% Solution A, 20% Solution B and binding reagent at a volume of 1/600 the total binding solution. The enzymatic reaction was stopped by addition of 60 μL of the binding solution to each well of the assay plate. The plates were sealed and shaken for 10 seconds. The plates were incubated at room temperature for one hour, then the parallel and perpendicular fluorescence was measured using a Tecan Genios Pro plate reader (Tecan, Switzerland). The apparent inhibition constants for the compounds against all 11 PDE's was determined from the parallel and perpendicular fluorescent readings as described for PDE10 FP assay using the following apparent KM values for each enzyme and substrate combination: PDE1A (FAM cGMP) 70 nM, human PDE2A1 (FAM cAMP) 10,000 nM, PDE3A (FAM cAMP) 50 nM, PDE4A1A (FAM cAMP) 1500 nM, PDE5A1 (FAM cGMP) 400 nM, PDE6C (FAM cGMP) 700 nM, PDE7A (FAM cAMP) 150 nM, PDE8A1 (FAM cAMP) 50 nM, PDE9A2 (FAM cGMP) 60 nM, PDE10A2 (FAM cAMP) 150 nM, PDE11A4 (FAM cAMP) 1000 nM. The intrinsic PDE2 inhibitory activity of a compound which may be used in accordance with the present invention may be determined by these assays.
# Chain of human PDE2A1 (O00408 other isoform, or with tags, fused parts or gaps): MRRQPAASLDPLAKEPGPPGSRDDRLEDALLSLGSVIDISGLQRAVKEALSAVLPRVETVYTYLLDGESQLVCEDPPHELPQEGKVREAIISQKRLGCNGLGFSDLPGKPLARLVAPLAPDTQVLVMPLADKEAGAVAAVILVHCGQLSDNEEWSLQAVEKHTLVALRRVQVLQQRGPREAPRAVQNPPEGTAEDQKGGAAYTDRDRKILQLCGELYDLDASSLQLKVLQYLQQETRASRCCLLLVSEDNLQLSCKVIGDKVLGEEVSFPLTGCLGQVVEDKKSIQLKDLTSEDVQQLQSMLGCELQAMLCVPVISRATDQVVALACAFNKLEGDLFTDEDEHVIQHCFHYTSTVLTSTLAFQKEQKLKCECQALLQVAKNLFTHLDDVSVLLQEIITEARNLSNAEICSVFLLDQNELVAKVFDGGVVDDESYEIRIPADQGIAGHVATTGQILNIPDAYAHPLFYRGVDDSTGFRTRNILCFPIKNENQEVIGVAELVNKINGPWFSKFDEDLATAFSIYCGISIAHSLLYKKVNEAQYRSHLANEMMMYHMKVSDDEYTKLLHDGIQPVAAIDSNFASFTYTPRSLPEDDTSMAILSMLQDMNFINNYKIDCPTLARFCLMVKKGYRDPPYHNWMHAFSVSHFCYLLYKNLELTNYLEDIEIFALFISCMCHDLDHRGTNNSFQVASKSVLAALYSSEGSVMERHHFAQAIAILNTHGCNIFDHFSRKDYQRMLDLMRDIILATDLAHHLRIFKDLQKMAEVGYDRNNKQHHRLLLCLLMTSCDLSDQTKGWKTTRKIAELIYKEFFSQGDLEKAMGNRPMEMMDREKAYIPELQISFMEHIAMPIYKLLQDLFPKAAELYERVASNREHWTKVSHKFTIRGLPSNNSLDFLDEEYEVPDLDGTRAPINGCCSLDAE
row,Structure (SMILES),Ki [nM]
1,"CC(C)(C)[C@@H](NC(=O)c1cc(=O)[nH]c(-c2ncccn2)n1)c1ccc(C(F)(F)F)c(F)c1 [Example 556, N-{(1R)-1-[3-fluoro-4-(trifluoromethyl)phenyl]-2,2-dimethylpropyl}-6-oxo-1,6-dihydro-2,2′-bipyrimidine-4-carboxamide]",7.7
2,"CC(C)(C)[C@@H](NC(=O)c1cc(=O)[nH]c(-c2ccccc2)n1)c1ccc(C2CC2)c(F)c1 [Example 539, N-[(1R)-1-(4-cyclopropyl-3-fluorophenyl)-2,2-dimethylpropyl]-6-oxo-2-phenyl-1,6-dihydropyrimidine-4-carboxamide]",1.2
3,"CCC(C)(NC(=O)c1cc(=O)[nH]c(C)n1)c1ccc(C(F)(F)F)cc1 (single isomer, unassigned) [Example 669, (R)- or (S)-2-methyl-N-{1-methyl-1-[4-(trifluoromethyl)phenyl]propyl}-6-oxo-1,6-dihydropyrimidine-4-carboxamide]",15
4,"Cc1nc(C(=O)N[C@@H](c2ccc(C(F)F)c(F)c2)C(C)(C)C)cc(=O)[nH]1 [Example 646, N-{(1R)-1-[4-(difluoromethyl)-3-fluorophenyl]-2,2-dimethylpropyl}-2-methyl-6-oxo-1,6-dihydropyrimidine-4-carboxamide]",15
5,"CC(C)(NC(=O)c1cc(=O)[nH]c(-c2ncccn2)n1)c1ccc(OC(F)(F)F)cc1F [Example 574, N-{1-[2-fluoro-4-(trifluoromethoxy)phenyl]-1-methylethyl}-6-oxo-1,6-dihydro-2,2′-bipyrimidine-4-carboxamide]",831
6,"CC(C)(C)[C@@H](NC(=O)c1cc(=O)[nH]c(-c2ncccn2)n1)c1ccc(OC(F)F)c(F)c1 [Example 589, N-{(1R)-1-[4-(difluoromethoxy)-3-fluorophenyl]-2,2-dimethylpropyl}-6-oxo-1,6-dihydro-2,2′-bipyrimidine-4-carboxamide]",22
7,"Cc1nc(C(=O)NC2(c3ccc(CC(F)(F)F)cc3)CC2)cc(=O)[nH]1 [Example 627, 2-methyl-6-oxo-N-{1-[4-(2,2,2-trifluoroethyl)phenyl]cyclopropyl}-1,6-dihydropyrimidine-4-carboxamide]",46
8,"CC(C)c1ccc([C@H](NC(=O)c2cc(=O)[nH]c(-c3ncccn3)n2)C2(C)CC2)cc1 [Example 562, N-{(R)-(1-methylcyclopropyl)[4-(1-methylethyl)phenyl]methyl}-6-oxo-1,6-dihydro-2,2′-bipyrimidine-4-carboxamide]",4.3
9,"CC(C)[C@@H](NC(=O)c1cc(=O)[nH]c(-c2ncccn2)n1)c1ccc(OC(F)(F)F)c(Br)c1 [Example 580, N-{(1R)-1-[3-bromo-4-(trifluoromethoxy)phenyl]-2-methylpropyl}-6-oxo-1,6-dihydro-2,2′-bipyrimidine-4-carboxamide]",38
10,"CC[C@@H](NC(=O)c1cc(=O)[nH]c(-c2ncccn2)n1)c1ccc2c(c1)OC(F)(F)O2 [Example 590, N-[(1R)-1-(2,2-difluoro-1,3-benzodioxol-5-yl)propyl]-6-oxo-1,6-dihydro-2,2′-bipyrimidine-4-carboxamide]",34
11,"CC(C)(C)[C@@H](NC(=O)c1cc(=O)[nH]c(-c2ncccn2)n1)c1ccc(C(F)(F)F)c([N+](=O)[O-])c1 [Example 567, N-{(1R)-2,2-dimethyl-1-[3-nitro-4-(trifluoromethyl)phenyl]propyl}-6-oxo-1,6-dihydro-2,2′-bipyrimidine-4-carboxamide]",49
12,"CC(C)[C@@H](NC(=O)c1cc(=O)[nH]c(-c2ncccn2)n1)c1ccc2c(c1)OC(F)(F)O2 [Example 592, N-[(1R)-1-(2,2-difluoro-1,3-benzodioxol-5-yl)-2-methylpropyl]-6-oxo-1,6-dihydro-2,2′-bipyrimidine-4-carboxamide]",15
13,"CCc1nc(C(=O)N[C@](C)(CO)c2ccc(C(F)(F)F)cc2Cl)cc(=O)[nH]1 [Example 639, N-{(1S)-1-[2-chloro-4-(trifluoromethyl)phenyl]-2-hydroxy-1-methylethyl}-2-ethyl-6-oxo-1,6-dihydropyrimidine-4-carboxamide]",2
14,"CC(C)(C)[C@@H](NC(=O)c1cc(=O)[nH]c(-c2ccccc2)n1)c1ccc(C(F)(F)F)c(F)c1 [Example 538, N-{(1R)-1-[3-fluoro-4-(trifluoromethyl)phenyl]-2,2-dimethylpropyl}-6-oxo-2-phenyl-1,6-dihydropyrimidine-4-caboxamide]",1.4
15,"Cc1nc(C(=O)NC(C)(C)c2cc(F)c(C(F)(F)F)cc2Cl)cc(=O)[nH]1 [Example 659, N-{1-[2-chloro-5-fluoro-4-(trifluoromethyl)phenyl]-1-methylethyl}-2-methyl-6-oxo-1,6-dihydropyrimidine-4-carboxamide]",139
16,"CC(C)[C@@H](NC(=O)c1cc(=O)[nH]c(-c2ncccn2)n1)c1ccc(C2CC2)c(F)c1 [Example 560, N-[(1R)-1-(4-cyclopropyl-3-fluorophenyl)-2-methylpropyl]-6-oxo-1,6-dihydro-2,2′-bipyrimidine-4-carboxamide]",5.1
17,"CC1([C@@H](NC(=O)c2cc(=O)[nH]c(-c3ncccn3)n2)c2ccc3c(c2)OC(F)(F)O3)CC1 [Example 585, N-[(R)-(2,2-difluoro-1,3-benzodioxol-5-yl)(1-methylcyclopropyl)methyl]-6-oxo-1,6-dihydro-2,2′-bipyrimidine-4-carboxamide]",39
18,"Cc1nc(C(=O)N[C@](C)(CO)c2ccc(C(F)(F)F)cc2Cl)cc(=O)[nH]1 [Example 640, N-{(1S)-1-[2-chloro-4-(trifluoromethyl)phenyl]-2-hydroxy-1-methylethyl}-2-methyl-6-oxo-1,6-dihydropyrimidine-4-carboxamide]",4.4
19,"Cc1nc(C(=O)N[C@@H](c2ccc(C(F)F)cc2)C(C)(C)C)cc(=O)[nH]1 [Example 644, N-{(1R)-1-[4-(difluoromethyl)phenyl]-2,2-dimethylpropyl}-2-methyl-6-oxo-1,6-dihydropyrimidine-4-carboxamide]",7.3
20,"Cc1nc(C(=O)N[C@@H](c2ccc(C(F)F)cc2)C2(C)CC2)cc(=O)[nH]1 [Example 645, N-[(R)-[4-(difluoromethyl)phenyl](1-methylcyclopropyl)methyl]-2-methyl-6-oxo-1,6-dihydropyrimidine-4-carboxamide]",25
21,"CC(C)(C)[C@@H](NC(=O)c1cc(=O)[nH]c(-c2ccccc2)n1)c1ccc(SC(F)(F)F)cc1 [Example 541, N-[(1R)-2,2-dimethyl-1-{4-[(trifluoromethyl)sulfanyl]phenyl}propyl]-6-oxo-2-phenyl-1,6-dihydropyrimidine-4-carboxamide]",1.3
22,"CC(C)[C@@H](NC(=O)c1cc(=O)[nH]c(-c2ccccc2)n1)c1ccc(OC(F)F)cc1 [Example 543, N-{(1R)-1-[4-(difluoromethoxy)phenyl]-2-methylpropyl}-6-oxo-2-phenyl-1,6-dihydropyrimidine-4-carboxamide]",5.2
23,"Cc1nc(C(=O)N[C@H](C)c2ccc(S(F)(F)(F)(F)F)cc2F)cc(=O)[nH]1 [Example 673, N-(1-(2-fluoro-4-(pentafluorothio)phenyl)ethyl)-2-methyl-6-oxo-1,6-dihydropyrimidine-4-carboxamide]",32
24,"Cc1cnc(-c2nc(C(=O)N[C@H](C)c3ccc(C(F)(F)F)cc3)cc(=O)[nH]2)o1 [Example 676, (R)-2-(5-methyloxazol-2-yl)-6-oxo-N-(1-(4-(trifluoromethyl)phenyl)ethyl)-1,6-dihydropyrimidine-4-carboxamide]",478
